Measurements from publication PMC4519322 (PLoS Pathogens, 2015).

Legend:
Y289H rWSN = type: cell-based, influenza A virus; settings: read-out: IC50 (μM) Y289H rWSM (H1N1)
A/WSN/1933 (H1N1) = type: cell-based, influenza A virus

Compound	IC50 (Y289H rWSN) [µM]	sensitivity of RK424 3rd passage virus (A/WSN/1933 (H1N1))	sensitivity of nucleozin 4th passage virus (A/WSN/1933 (H1N1))
Cc1onc(-c2ccccc2)c1C(=O)N1CCN(c2ccc([N+](=O)[O-])cc2Cl)CC1 [Nucleozin, nucleozin, reference compound]	> 100	susceptible	exhibited resistance
O=C(O)c1cc(-c2ccc(-c3ccccc3)cc2)nc2ccccc12 [RK424]	0.3 ± 0.1	susceptible	but not RK424
